# In patent US20200354426A1 (MEDIMMUNE LIMITED, priority 2016, published 2020):
# Test system: healthy volunteers
# Experiment: Phase 1 single-ascending-dose study of G933 (PK, PD, immunogenicity, safety)
# Assay type: in vivo, human
# Details: for Overall daily food intake compared with placebo: across breakfast, lunch and dinner; for Median glucose peak after breakfast: approximately 1 hour post breakfast, 3.5 hours post dose; for Median glucose peak after dinner: approximately 1 hour post dinner, […] post dose; for Median glucose peak after lunch: approximately 1 hour post lunch, 7 hours post dose
# Text: The subjects were screened for the following inclusion and exclusion criteria.
# Inclusion Criteria: • Healthy volunteers, ages 18 through 45 years at the time of screening; • Body mass index ≥22 and ≤30 kg/m^2 and body weight ≥70 kg; and • Venous access suitable for multiple cannulations.
# The period of exclusion to begin 30 days or 5 half-lives of investigational product after the final dose, or after the last visit, whichever is longest. Subjects consented and screened, but not randomized into this study or a previous study, are not excluded; or • Psychiatric illness such that subjects have been committed to an institution by way of official or judicial order
# Eight subjects per cohort were planned.
substance,measurement,setting,value
L-Histidyl-L-seryl-L-glutaminylglycyl-L-threonyl-L-phenylalanyl-L-threonyl-L-seryl-L-alpha-aspartyl-(N6-[N-(1-oxohexadecyl)-L-gamma-gutamyl])L-lysy-L-sery-L-alpha-glutamyl-L-tyrosyl-L-leucyl-L-alpha-aspartyl-L-seryl-L-alpha-glutamyl-L-arginyl-L-alanyl-L-arginyl-L-alpha-L-aspartyl-L-phenylalanyl-L-valyl-L-alanyl-L-tryptophyl-L-leucyl-L-alpha-glutamyl-L-alanylglycylglycine [Peptide G933],Overall daily food intake compared with placebo,Dose (µg) 5,100%
same,Median glucose peak after breakfast,Dose (µg) 5,6.2 mmol/L
same,Median glucose peak after dinner,Dose (µg) 5,7.0 mmol/L
same,Median glucose peak after lunch,Dose (µg) 5,4.9 mmol/L
same,Overall daily food intake compared with placebo,Dose (µg) 10,100%
same,Median glucose peak after breakfast,Dose (µg) 10,5.8 mmol/L
same,Median glucose peak after dinner,Dose (µg) 10,6.0 mmol/L
same,Median glucose peak after lunch,Dose (µg) 10,5.1 mmol/L
same,Overall daily food intake compared with placebo,Dose (µg) 30,96%
same,Median glucose peak after breakfast,Dose (µg) 30,5.4 mmol/L
same,Median glucose peak after dinner,Dose (µg) 30,5.2 mmol/L
same,Median glucose peak after lunch,Dose (µg) 30,4.4 mmol/L
same,Overall daily food intake compared with placebo,Dose (µg) 100,82%
same,Median glucose peak after breakfast,Dose (µg) 100,5.5 mmol/L
same,Median glucose peak after dinner,Dose (µg) 100,5.2 mmol/L
same,Median glucose peak after lunch,Dose (µg) 100,4.7 mmol/L
same,Overall daily food intake compared with placebo,Dose (µg) 150,60%
same,Median glucose peak after breakfast,Dose (µg) 150,5.1 mmol/L
same,Median glucose peak after dinner,Dose (µg) 150,5.2 mmol/L
same,Median glucose peak after lunch,Dose (µg) 150,5.1 mmol/L
same,Overall daily food intake compared with placebo,Dose (µg) 300,23%
same,Median glucose peak after breakfast,Dose (µg) 300,4.7 mmol/L
same,Median glucose peak after dinner,Dose (µg) 300,4.9 mmol/L
same,Median glucose peak after lunch,Dose (µg) 300,5.1 mmol/L
same,overall daily food intake,all single doses compared with placebo,reduction in overall daily food intake
same,plasma glucose levels,"all single doses, 2.5-14 hours post-dose",glucose lowering effect
